Experiments:
CDK9/CyclinT1 = biological target: T1, CDK9/CyclinT1 (Homo sapiens, UniProt P50750); test: Kinase activity assay, ADP-Glo (CDK9/CyclinT1); assay type: biochemical; conditions: Table 18; read-out: CDK9/T1 IC50
T1 construct: purchased Wuxi Biortus BP480/792/691
Procedure: The starting concentration for the in vitro CDK (CDK2 and CDK9) kinase activity assay was 1 µM and was 3-fold diluted to a total of 10 concentrations, and each concentration was tested in duplicate. The compound PHA-793887 was used as a control compound.
A 1× kinase reaction buffer (40 mM Tris-HCl, pH 7.4, 20 mM […], 0.1 mg/mL BSA, 50 µM DTT), 1 volume of 5× kinase reaction buffer, and 4 volumes of water were prepared, and DTT (final concentration: 50 µM) was added. 50 nL of diluted compound working solution (final concentration of DMSO: 1%) was transferred to each well of a reaction plate (784075, Greiner) using Echo655. The reaction plate was sealed with a plate sealing film and centrifuged at 1000 g for 1 min. 2× enzyme (0.3 ng/µL CDK2/CyclinE1 or CDK9/CyclinT1) was prepared using the 1× kinase reaction buffer. 2.5 µL of the above kinase solution was added to each well. The reaction plate was sealed with a plate sealing film, centrifuged at 1000 g for 1 min, and left to stand at room temperature for 10 min. A mixture of 2× kinase substrate and ATP was prepared using the 1× kinase reaction buffer. 2× CDK2/CylinE1 kinase substrate was 0.4 mg/mL Histone H1 and 30 µM ATP. 2.5 µL of the mixture of 2× Histone H1 and ATP was added to the reaction plate. The plate was centrifuged at 1000 g for 30 s, and the reaction was started. […] The luminescence signals were obtained using Envision 2104. […]

CYP2C9 = CYP2C9 (Homo sapiens, UniProt P11712); test: biochemical
CYP2C9, sequence (P11712 whole entry): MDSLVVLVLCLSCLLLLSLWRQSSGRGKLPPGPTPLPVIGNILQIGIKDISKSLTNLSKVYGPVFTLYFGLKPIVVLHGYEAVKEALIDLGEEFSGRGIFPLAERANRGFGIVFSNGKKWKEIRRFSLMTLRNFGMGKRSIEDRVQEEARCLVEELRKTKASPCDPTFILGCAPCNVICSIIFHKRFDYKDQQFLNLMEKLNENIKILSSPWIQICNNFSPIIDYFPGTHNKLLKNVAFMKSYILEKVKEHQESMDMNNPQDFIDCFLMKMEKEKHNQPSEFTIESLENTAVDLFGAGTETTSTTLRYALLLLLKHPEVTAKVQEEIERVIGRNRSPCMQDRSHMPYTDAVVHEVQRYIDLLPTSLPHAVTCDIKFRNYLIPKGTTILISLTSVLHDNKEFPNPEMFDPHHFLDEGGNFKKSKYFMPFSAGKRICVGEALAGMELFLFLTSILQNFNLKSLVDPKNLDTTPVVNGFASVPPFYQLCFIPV
Procedure: (§1) The effects of different concentrations of the test compounds on the metabolic reactions of phenacetin (CYP1A2), diclofenac sodium (CYP2C9), S-mephenytoin (CYP2C19), bufuralol hydrochloride (CYP2D6), and midazolam (CYP3A4/5) were assessed by liquid chromatography-tandem mass spectrometry (LC/MS/MS).
(§2) Then, 200 µL of an acetonitrile solution containing 3% formic acid and 40 nM internal standard verapamil was added, and the mixture was centrifuged at 4000 rpm for 50 min. The mixture was cooled on ice for 20 min and centrifuged at 4000 rpm for 20 min to precipitate protein. 200 µL of the supernatant was taken for LC/MS/MS analysis.
(§3) The peak area was calculated based on the chromatogram. The residual activity proportion (%) was calculated using the following formula: peak area ratio = peak area of metabolite / peak area of internal standard [formula]
(§4) The half maximal inhibitory concentrations (IC50) against CYP were calculated using Excel XLfit 5.3.1.3.

CDK4/CyclinD1 = biological target: T2, CDK4/CyclinD1 (Homo sapiens, UniProt P11802); test: Kinase activity assay, mobility shift assay (CDK4/CyclinD1); assay type: biochemical; conditions: Table 18; read-out: CDK4/D1 IC50
T2 construct: purchased ProQinase 0142-0143-1
T2 sequence (P11802 whole entry): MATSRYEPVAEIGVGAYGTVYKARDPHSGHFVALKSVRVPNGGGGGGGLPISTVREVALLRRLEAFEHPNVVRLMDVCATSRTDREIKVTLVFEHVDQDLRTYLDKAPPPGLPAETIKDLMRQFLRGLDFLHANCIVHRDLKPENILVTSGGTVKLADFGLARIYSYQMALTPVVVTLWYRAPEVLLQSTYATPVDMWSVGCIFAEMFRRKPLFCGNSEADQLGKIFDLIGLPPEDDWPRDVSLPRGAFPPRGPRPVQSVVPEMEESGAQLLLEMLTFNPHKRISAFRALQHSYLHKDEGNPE
T2 sequence (P24385 whole entry partner): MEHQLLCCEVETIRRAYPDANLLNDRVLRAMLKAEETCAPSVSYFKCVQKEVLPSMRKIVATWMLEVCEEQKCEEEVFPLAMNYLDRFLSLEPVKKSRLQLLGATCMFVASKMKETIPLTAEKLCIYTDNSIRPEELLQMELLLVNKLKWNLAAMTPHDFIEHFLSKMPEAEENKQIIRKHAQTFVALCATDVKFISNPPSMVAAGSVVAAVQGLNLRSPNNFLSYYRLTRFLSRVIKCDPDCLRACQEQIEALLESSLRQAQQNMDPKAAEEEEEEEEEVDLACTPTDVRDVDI
Procedure: In vitro CDK kinase activity was tested using a mobility shift assay. […] A proper amount of kinase was added to the 1× kinase buffer to prepare a 2.5× enzyme solution. 5× compound dilutions (1× kinase buffer, 10% DMSO) corresponding to the test concentrations of the compounds were prepared. […] 5 µL of 5× compound dilution and 10 µL of 2.5× enzyme solution were added to reaction wells of a 384-well reaction plate. After thorough mixing, the plate was incubated at room temperature for 10 min. […] The reaction plate was incubated at 28 °C for 60 min (biochemical incubator model: SPX-100B-Z). 30 µL of stop solution was added to the 384-well reaction plate to stop the reactions, and the plate was centrifuged at 1000 rpm for 1 min.
IC50 values for the compounds were obtained by fitting using XLFit excel add-in version 5.4.0.8. Fitting formula: Y = Bottom + (Top−Bottom)/(1+((IC50/X))^(∧)HillSlope). [formula]

CYP2C19 = CYP2C19 (Homo sapiens, UniProt P33261); test: biochemical
CYP2C19, sequence (P33261 whole entry): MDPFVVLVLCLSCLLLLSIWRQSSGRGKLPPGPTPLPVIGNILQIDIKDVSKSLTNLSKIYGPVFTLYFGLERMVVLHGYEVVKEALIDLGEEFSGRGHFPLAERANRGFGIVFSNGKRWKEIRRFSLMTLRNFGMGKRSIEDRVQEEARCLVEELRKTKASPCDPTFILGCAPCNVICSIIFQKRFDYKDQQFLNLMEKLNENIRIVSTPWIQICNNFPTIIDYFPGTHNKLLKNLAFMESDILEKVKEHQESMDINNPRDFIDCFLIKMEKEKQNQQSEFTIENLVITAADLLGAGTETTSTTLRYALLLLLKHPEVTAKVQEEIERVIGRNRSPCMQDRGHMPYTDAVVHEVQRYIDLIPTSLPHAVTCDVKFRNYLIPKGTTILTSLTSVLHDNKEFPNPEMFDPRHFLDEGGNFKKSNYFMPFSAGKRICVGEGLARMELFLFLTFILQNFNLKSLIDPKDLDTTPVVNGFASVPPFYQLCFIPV
Procedure: as §1, §2, §3, §4

T1 sequence (P50750 whole entry, species assumed): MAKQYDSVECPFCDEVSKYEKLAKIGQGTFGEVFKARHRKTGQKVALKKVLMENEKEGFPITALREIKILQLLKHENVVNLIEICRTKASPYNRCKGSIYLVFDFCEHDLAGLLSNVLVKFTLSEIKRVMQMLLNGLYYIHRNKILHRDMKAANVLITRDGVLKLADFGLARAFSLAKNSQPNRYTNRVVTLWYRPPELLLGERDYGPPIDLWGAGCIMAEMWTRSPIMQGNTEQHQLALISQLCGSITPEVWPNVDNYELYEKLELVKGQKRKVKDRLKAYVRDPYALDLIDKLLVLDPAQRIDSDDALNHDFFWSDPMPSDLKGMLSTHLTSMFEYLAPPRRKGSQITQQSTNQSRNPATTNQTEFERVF
T1 sequence (O60563 whole entry partner, species assumed): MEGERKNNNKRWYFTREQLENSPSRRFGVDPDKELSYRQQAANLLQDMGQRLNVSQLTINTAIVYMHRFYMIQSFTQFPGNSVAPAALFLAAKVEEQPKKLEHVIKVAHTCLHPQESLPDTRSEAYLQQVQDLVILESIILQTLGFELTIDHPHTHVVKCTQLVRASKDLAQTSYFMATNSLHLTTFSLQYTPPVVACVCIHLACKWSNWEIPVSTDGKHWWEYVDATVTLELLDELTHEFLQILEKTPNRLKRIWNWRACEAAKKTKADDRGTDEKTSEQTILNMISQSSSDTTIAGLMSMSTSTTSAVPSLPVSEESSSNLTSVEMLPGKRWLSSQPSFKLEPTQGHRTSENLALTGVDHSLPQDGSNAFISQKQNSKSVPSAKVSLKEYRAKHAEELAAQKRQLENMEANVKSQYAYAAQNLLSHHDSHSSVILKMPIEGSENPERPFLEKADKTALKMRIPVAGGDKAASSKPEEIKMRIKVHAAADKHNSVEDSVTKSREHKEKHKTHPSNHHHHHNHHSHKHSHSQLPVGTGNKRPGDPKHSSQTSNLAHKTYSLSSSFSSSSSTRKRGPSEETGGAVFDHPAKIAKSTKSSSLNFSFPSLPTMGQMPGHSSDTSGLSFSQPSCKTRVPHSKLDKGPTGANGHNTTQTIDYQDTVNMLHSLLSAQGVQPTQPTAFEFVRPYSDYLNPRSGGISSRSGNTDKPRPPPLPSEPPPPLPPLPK

IC50 (CDK9/CyclinT1) [nM] | IC50 (CYP2C9) [nM] | IC50 (CDK4/CyclinD1) [nM] | IC50 (CYP2C19) [nM] | SMILES
> 1000 | > 30000 | 8.2 | > 30000 | C[C@H]1COc2c(-c3nc(N[C@@H]4CCOC[C@H]4O)ncc3Cl)cc(F)c3nc(C(C)(C)O)n1c23 (single isomer, unassigned) [Isomer 1 with a retention time of 2.078 min]
> 1000 | > 30000 | 14 | > 30000 | C[C@@H]1COc2c(-c3nc(N[C@@H]4CCOC[C@H]4O)ncc3Cl)cc(F)c3nc(C(C)(C)O)n1c23 (single isomer, unassigned) [Isomer 2 with a retention time of 1.887 min]

Source: EP4567040A1, “CRYSTAL FORM OF FUSED TRICYCLIC DERIVATIVE AND PREPARATION METHOD” (Jiangsu Hengrui Pharmaceuticals Co., Ltd., priority 2022, dated 2024)
